Laboratory results reported in ChEMBL document CHEMBL1201862, “PubChem BioAssay data set” (2004).
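The compound was tested at five concentrations on cells cultured in 96-well plates, with a 48-hour exposure period. GI50: concentration for 50% inhibition of growth.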 The source made the active and inactive calls. No stated cut-off is given here; in the data, active = GI50 up to about 1.1 µM and inactive = higher.

Assays:
Test in all cases: NCI anticancer screen, dose series, 48 h
[1] = system: 786-0
[2] = system: CAKI-1
[3] = system: CCRF-CEM
[4] = system: COLO 205
[5] = system: HCT-15
[6] = system: HOP-62
[7] = system: HT-29
[8] = system: Hs-578T
[9] = system: IGROV-1
[10] = system: MDA-MB-231
[11] = system: Malme-3M
[12] = system: NCI-H23
[13] = system: NCI-H522
[14] = system: SF-539
[15] = system: SK-MEL-5
[16] = system: SNB-19
[17] = system: SR
[18] = system: T47D
[19] = system: TK-10
[20] = system: ACHN

SMILES	GI50 [1]	GI50 [2]	GI50 [3]	GI50 [4]	GI50 [5]	GI50 [6]	GI50 [7]	GI50 [8]	GI50 [9]	GI50 [10]	GI50 [11]	GI50 [12]	GI50 [13]	GI50 [14]	GI50 [15]	GI50 [16]	GI50 [17]	GI50 [18]	GI50 [19]	GI50 [20]
Cn1c2ccccc2c2c3c(c4c5ccccc5n(C)c4c21)C(=O)NC3=O	3.89 µM (inactive)	0.0256 µM (active)	> 100 µM (inactive)	> 72.6 µM (inactive)	> 100 µM	12.2 µM (inactive)	> 32.5 µM (inactive)	24.8 µM (inactive)	5.71 µM (inactive)	13.4 µM (inactive)	20.5 µM (inactive)	15.1 µM (inactive)	21.2 µM (inactive)	10.2 µM (inactive)	20.7 µM (inactive)	15.3 µM (inactive)	< 0.01 µM (active)	46.1 µM (inactive)	18.2 µM (inactive)	
S=C(CSc1ccccc1)Nc1cccc2ccccc12	41.7 µM (inactive)	59 µM (inactive)		16.4 µM (inactive)	48.4 µM	77.3 µM (inactive)	43.1 µM (inactive)	77.1 µM (inactive)	72.8 µM (inactive)	80.2 µM (inactive)	40.3 µM (inactive)	41.4 µM (inactive)	20.9 µM (inactive)	28.4 µM (inactive)	18.5 µM (inactive)	76.9 µM (inactive)	22.5 µM (inactive)	40.3 µM (inactive)	36.3 µM (inactive)	39.7 µM (inactive)
CCOC(=O)c1c(-c2ccccc2)oc(=O)c(Cc2cccc3cccnc23)c1-c1ccccc1	> 10 µM (inactive)	> 10 µM (inactive)	> 10 µM (inactive)	> 10 µM (inactive)	> 10 µM	> 10 µM (inactive)	> 10 µM (inactive)	> 10 µM (inactive)	> 10 µM (inactive)	> 10 µM (inactive)	> 10 µM (inactive)	> 10 µM (inactive)	> 10 µM (inactive)	> 10 µM (inactive)	> 10 µM (inactive)	> 10 µM (inactive)	> 10 µM (inactive)	> 10 µM (inactive)	> 10 µM (inactive)	> 10 µM (inactive)
C[N+]1(c2ccccc2)C=C(c2ccccc2)SC1=S (stereo not given)	> 100 µM (inactive)	> 100 µM (inactive)		23.1 µM (inactive)	> 100 µM	> 100 µM (inactive)	7.43 µM (inactive)	66.1 µM (inactive)	> 100 µM (inactive)	> 100 µM (inactive)	73.1 µM (inactive)	> 100 µM (inactive)	30.6 µM (inactive)	> 100 µM (inactive)	33.4 µM (inactive)	> 100 µM (inactive)	> 100 µM (inactive)	1.67 µM (inactive)	> 100 µM (inactive)	> 100 µM (inactive)
Cc1cc(C)nc(NS(=O)(=O)c2ccc(NC(=O)c3ccc4nc5ccccc5c(Nc5ccc(S(N)(=O)=O)cc5)c4c3)cc2)n1	> 100 µM (inactive)	> 100 µM (inactive)	28.2 µM (inactive)	> 100 µM (inactive)	> 100 µM	> 100 µM (inactive)	75.3 µM (inactive)	91.2 µM (inactive)	> 100 µM (inactive)	94.2 µM (inactive)	93.3 µM (inactive)	> 100 µM (inactive)	34.2 µM (inactive)	> 100 µM (inactive)	> 100 µM (inactive)	> 100 µM (inactive)	40.1 µM (inactive)	> 100 µM (inactive)	> 100 µM (inactive)	> 100 µM (inactive)
C[C@]12CCC(=O)[C@@H](CCC3=CC(=O)C=CC3=O)[C@@H]1CCC2=O	10 µM (inactive)	12.7 µM (inactive)	1.87 µM (inactive)	13 µM (inactive)	17.4 µM	39.2 µM (inactive)	25.6 µM (inactive)	3.97 µM (inactive)		20.3 µM (inactive)	16.1 µM (inactive)	12.5 µM (inactive)	2.19 µM (inactive)	11.4 µM (inactive)	6.32 µM (inactive)	41.5 µM (inactive)	0.0102 µM (active)	9.23 µM (inactive)	16 µM (inactive)	16.6 µM (inactive)
C=C1CC(COc2ccc3c(C)cc(=O)oc3c2)(c2ccccc2)OC1=O (stereo not given)	1.48 µM (inactive)	1.64 µM (inactive)	0.281 µM (active)	1.34 µM (inactive)	1.74 µM	13.1 µM (inactive)	1.29 µM (inactive)	6.82 µM (inactive)	1.84 µM (inactive)	2.74 µM (inactive)	1.3 µM (inactive)	2.34 µM (inactive)	1.74 µM (inactive)	2.45 µM (inactive)	2.2 µM (inactive)	15.2 µM (inactive)	1.7 µM (inactive)	2.24 µM (inactive)	1.62 µM (inactive)	3.37 µM (inactive)
Cc1cn(S(=O)(=O)c2ccccc2)c2c(OCc3ccccc3)cc([N+](=O)[O-])cc12	27.1 µM (inactive)	> 100 µM (inactive)	> 100 µM (inactive)	> 100 µM (inactive)	> 100 µM	> 10 µM (inactive)	> 100 µM (inactive)	26 µM (inactive)	71 µM (inactive)	80.9 µM (inactive)	17.5 µM (inactive)	96.8 µM (inactive)	70.5 µM (inactive)	> 100 µM (inactive)	6.17 µM (inactive)	56.4 µM (inactive)	< 0.01 µM (active)	29.2 µM (inactive)	> 100 µM (inactive)	61.7 µM (inactive)
CC(C)C12CCC3(CCC4C(C)(C(=O)O)CCCC4(C)C3C1)C(CN)C2 (stereo not given)	20.2 µM (inactive)	35.4 µM (inactive)	0.388 µM (active)	17.7 µM (inactive)	31.9 µM	74.6 µM (inactive)	23.4 µM (inactive)	62.8 µM (inactive)	53.2 µM (inactive)	58.7 µM (inactive)	45 µM (inactive)	25.6 µM (inactive)	23.8 µM (inactive)	28.2 µM (inactive)	27.7 µM (inactive)	39 µM (inactive)	25.9 µM (inactive)	55.2 µM (inactive)	37.7 µM (inactive)	33.4 µM (inactive)
C=CCc1cccc2cc(C(=O)Nc3ccccc3)c(=N)oc12	30.3 µM (inactive)	63.2 µM (inactive)	> 100 µM (inactive)	> 100 µM (inactive)	33.6 µM	> 100 µM (inactive)	> 100 µM (inactive)	37.6 µM (inactive)	33.2 µM (inactive)	> 100 µM (inactive)	7.14 µM (inactive)	79.8 µM (inactive)	10.4 µM (inactive)	28.2 µM (inactive)	21.7 µM (inactive)	> 100 µM (inactive)	> 100 µM (inactive)	11.9 µM (inactive)		10.1 µM (inactive)
O=C(Nc1ccccc1)c1cc(S(=O)(=O)Nc2n[nH]c(=O)n2-c2ccccc2)c(S)cc1Cl	> 100 µM (inactive)	> 100 µM (inactive)		> 100 µM (inactive)	> 100 µM		> 100 µM (inactive)	> 100 µM (inactive)	> 100 µM (inactive)	> 100 µM (inactive)	> 100 µM (inactive)		> 100 µM (inactive)	> 100 µM (inactive)	> 100 µM (inactive)	> 100 µM (inactive)	> 100 µM (inactive)	> 100 µM (inactive)	> 100 µM (inactive)	
C=C(CN1CC2C[C@](C(=O)OC)(c3cc4ccccc4[nH]3)C1C(OC)C2OC)S(=O)(=O)c1ccccc1 (stereo not given in full)	2.4 µM (inactive)	3.71 µM (inactive)	2.24 µM (inactive)	2.54 µM (inactive)	3.08 µM	4.78 µM (inactive)	2.72 µM (inactive)	2.5 µM (inactive)	2.6 µM (inactive)	3.35 µM (inactive)	0.43 µM (active)	2.91 µM (inactive)	1.7 µM (inactive)	4.9 µM (inactive)	4.44 µM (inactive)	10.8 µM (inactive)	2.7 µM (inactive)	4.6 µM (inactive)	4.85 µM (inactive)	3.01 µM (inactive)
Oc1cc(-c2cccc(OCc3ccccc3)c2)nc2cc3c(cc12)OCO3	0.374 µM (active)	0.673 µM (active)	0.274 µM (active)	1.31 µM (inactive)	0.376 µM	0.44 µM (active)	2.01 µM (inactive)	0.303 µM (active)	1.09 µM (active)	0.605 µM (active)	0.621 µM (active)	0.75 µM (active)	0.268 µM (active)	0.252 µM (active)	0.247 µM (active)	0.423 µM (active)	0.397 µM (active)	> 52 µM (inactive)	2.32 µM (inactive)	3.71 µM (inactive)
CC(OP(=O)(O)O)C(N)C(=O)O (stereo not given)	> 100 µM (inactive)	> 100 µM (inactive)	> 100 µM (inactive)	> 100 µM (inactive)	> 100 µM	> 100 µM (inactive)	> 100 µM (inactive)	> 100 µM (inactive)	> 100 µM (inactive)	> 100 µM (inactive)	> 100 µM (inactive)	> 100 µM (inactive)	> 100 µM (inactive)	> 100 µM (inactive)	> 100 µM (inactive)	> 100 µM (inactive)	> 100 µM (inactive)	> 100 µM (inactive)	> 100 µM (inactive)	> 100 µM (inactive)
C[N+]1(C)CC[N+](C)(C)[BH-]1C(O)O	> 100 µM (inactive)	> 100 µM (inactive)	> 100 µM (inactive)	> 100 µM (inactive)	> 100 µM	> 100 µM (inactive)	> 100 µM (inactive)	> 100 µM (inactive)	> 100 µM (inactive)	> 100 µM (inactive)		> 100 µM (inactive)	> 100 µM (inactive)	> 100 µM (inactive)	> 100 µM (inactive)	> 100 µM (inactive)	> 100 µM (inactive)	> 100 µM (inactive)	> 100 µM (inactive)	> 100 µM (inactive)
